ChEMBL document CHEMBL1201862, “PubChem BioAssay data set” (2004)
Active and inactive are the calls of the source.

Columns and labels:
[1] = tested on: Jurkat; experiment: SAR Analysis of small molecule inhibitors of […] specific antigen receptor-induced NF-kB activation in a Jurkat cell line using a luminescence assay - Set 3. [Related pubchem assays (depositor defined):AID435022, AID435025, AID465]; type: functional, cell-based; conditions: Homo sapiens
[2] = tested on: HEK293; experiment: cytotoxicity in HEK293T NF-kB-Luc cells, SAR follow-up, cytotoxicity control for NF-kB activator project, cell-based, resazurin fluorescence (AID 493251); type: functional; conditions: Homo sapiens
[3] = tested on: HEK293; experiment: SAR Analysis of small molecule inhibitors of B-cell specific antigen receptor-induced NF-kB activation in a HEK-293T cell line using a luminescence assay - Set 2. [Related pubchem assays (depositor defined):AID435022, AID435025, AID489021]; type: functional, cell-based; conditions: Homo sapiens
[4] = target: T1, Nuclear receptor subfamily 0 group B member 1 (Homo sapiens, UniProt P51843); experiment: Luminescence-based cell-based high throughput dose response assay for inhibitors of the orphan nuclear receptor subfamily 0, group B, member 1 (DAX1; NR0B1). [Related pubchem assays (depositor defined):AID504766, AID504790]; type: functional
T1 sequence (P51843 whole entry): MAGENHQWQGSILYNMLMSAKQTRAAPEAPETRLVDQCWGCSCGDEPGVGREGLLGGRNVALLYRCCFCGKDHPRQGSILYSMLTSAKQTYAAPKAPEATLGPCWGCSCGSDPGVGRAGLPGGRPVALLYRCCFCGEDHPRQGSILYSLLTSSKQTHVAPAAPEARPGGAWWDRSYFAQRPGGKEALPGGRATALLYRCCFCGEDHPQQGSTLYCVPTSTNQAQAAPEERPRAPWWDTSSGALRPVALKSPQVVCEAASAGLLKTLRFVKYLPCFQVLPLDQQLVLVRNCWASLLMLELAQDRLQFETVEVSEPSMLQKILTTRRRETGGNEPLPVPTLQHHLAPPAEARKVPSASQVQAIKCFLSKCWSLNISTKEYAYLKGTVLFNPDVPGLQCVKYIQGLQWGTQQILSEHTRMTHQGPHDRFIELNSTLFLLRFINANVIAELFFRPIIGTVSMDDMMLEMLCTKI

[5] = tested on: HEK293; experiment: cells; type: functional, cell-based; conditions: Homo sapiens
[6] = target: Beta-2 adrenergic receptor (Homo sapiens, UniProt P07550); experiment: beta2AR agonists driving receptor internalization, dose response, cell-based, FAP fluorogen, flow cytometry, cherry pick 1 (AID 588763); type: functional
Beta-2 adrenergic receptor, sequence (P07550 whole entry): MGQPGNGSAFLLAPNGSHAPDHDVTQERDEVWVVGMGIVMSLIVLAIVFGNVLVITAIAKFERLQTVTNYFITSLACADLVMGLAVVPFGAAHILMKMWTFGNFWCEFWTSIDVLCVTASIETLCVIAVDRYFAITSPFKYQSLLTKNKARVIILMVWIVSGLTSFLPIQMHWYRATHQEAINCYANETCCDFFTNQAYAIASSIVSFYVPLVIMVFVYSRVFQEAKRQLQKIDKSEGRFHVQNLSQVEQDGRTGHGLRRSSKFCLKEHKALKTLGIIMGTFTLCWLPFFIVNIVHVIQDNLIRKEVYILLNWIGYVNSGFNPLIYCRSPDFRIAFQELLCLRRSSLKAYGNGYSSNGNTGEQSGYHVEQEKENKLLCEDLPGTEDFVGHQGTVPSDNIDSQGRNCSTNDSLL

[7] = target: T2, Dual specificity protein phosphatase 6 (Rattus norvegicus, UniProt Q64346); type: functional
T2 sequence (Q64346 whole entry): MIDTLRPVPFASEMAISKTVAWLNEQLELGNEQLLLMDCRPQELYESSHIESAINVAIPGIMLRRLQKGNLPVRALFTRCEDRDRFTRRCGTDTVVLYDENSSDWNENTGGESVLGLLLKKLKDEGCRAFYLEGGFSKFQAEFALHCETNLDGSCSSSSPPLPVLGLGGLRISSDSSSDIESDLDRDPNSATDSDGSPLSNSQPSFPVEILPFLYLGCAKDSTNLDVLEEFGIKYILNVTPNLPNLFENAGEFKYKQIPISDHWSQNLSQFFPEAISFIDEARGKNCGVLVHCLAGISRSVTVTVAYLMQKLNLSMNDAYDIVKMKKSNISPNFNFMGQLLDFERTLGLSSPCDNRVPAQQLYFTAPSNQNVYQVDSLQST

[8] = target: T2, Dual specificity protein phosphatase 6
[9] = target: Heat shock cognate 71 kDa protein (Homo sapiens, UniProt P11142); experiment: In Vitro Hsc70 Dose Response Fluorescence Polarization Assay. [Related pubchem assays: 1072 ]
Heat shock cognate 71 kDa protein, sequence (P11142 whole entry): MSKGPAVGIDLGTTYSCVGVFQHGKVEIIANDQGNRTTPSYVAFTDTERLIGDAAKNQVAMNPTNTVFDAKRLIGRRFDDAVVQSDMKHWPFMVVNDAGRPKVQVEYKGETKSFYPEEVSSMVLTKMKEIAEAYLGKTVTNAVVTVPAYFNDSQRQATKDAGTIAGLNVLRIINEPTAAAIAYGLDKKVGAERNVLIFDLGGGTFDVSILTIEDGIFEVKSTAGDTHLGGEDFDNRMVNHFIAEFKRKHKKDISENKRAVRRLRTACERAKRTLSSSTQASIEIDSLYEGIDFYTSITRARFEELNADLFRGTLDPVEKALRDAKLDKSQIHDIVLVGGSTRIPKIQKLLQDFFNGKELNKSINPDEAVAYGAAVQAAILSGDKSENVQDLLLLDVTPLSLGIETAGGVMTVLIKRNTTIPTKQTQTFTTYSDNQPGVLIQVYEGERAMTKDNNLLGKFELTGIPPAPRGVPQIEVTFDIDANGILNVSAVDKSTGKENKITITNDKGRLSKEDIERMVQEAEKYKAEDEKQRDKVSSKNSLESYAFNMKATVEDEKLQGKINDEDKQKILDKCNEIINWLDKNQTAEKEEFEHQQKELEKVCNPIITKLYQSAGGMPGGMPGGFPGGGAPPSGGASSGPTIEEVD

[10] = target: Heat shock 70 kDa protein 1A (Homo sapiens, UniProt P0DMV8); experiment: Hsp70 inhibitors, SAR follow-up, biochemical, fluorescence polarization (AID 1072)
Heat shock 70 kDa protein 1A, sequence (P0DMV8 whole entry): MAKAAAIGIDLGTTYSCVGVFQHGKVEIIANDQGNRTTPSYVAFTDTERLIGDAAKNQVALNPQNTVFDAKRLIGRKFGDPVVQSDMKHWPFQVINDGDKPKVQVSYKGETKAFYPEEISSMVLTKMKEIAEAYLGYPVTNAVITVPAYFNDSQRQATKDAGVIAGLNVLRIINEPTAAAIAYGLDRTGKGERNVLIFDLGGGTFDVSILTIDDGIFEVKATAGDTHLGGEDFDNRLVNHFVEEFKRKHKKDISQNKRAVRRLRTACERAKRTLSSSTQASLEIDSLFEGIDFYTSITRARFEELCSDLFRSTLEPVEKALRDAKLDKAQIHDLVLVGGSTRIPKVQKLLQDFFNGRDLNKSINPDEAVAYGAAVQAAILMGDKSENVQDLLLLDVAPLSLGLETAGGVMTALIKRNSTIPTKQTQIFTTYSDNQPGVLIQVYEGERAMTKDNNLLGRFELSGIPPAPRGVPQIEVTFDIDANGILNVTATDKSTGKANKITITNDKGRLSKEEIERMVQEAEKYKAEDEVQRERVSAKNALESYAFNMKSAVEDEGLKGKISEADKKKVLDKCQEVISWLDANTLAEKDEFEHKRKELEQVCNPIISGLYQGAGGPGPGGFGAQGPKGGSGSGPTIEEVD

[11] = target: T3, Tyrosine-protein phosphatase non-receptor type 7 (Homo sapiens, UniProt P35236); type: functional
T3 sequence (P35236 whole entry): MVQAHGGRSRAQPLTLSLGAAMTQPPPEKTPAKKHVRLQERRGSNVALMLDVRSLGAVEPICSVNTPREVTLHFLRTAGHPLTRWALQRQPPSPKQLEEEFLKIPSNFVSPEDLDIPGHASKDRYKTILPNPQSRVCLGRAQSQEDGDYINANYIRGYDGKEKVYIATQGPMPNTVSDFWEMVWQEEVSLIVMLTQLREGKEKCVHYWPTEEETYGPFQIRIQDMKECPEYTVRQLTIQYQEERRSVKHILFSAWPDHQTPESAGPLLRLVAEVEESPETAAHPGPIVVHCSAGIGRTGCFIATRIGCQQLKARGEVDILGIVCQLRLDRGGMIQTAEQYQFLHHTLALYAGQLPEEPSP

[12] = target: Glyceraldehyde-3-phosphate dehydrogenase (Homo sapiens, UniProt P04406)
Glyceraldehyde-3-phosphate dehydrogenase, sequence (P04406 whole entry): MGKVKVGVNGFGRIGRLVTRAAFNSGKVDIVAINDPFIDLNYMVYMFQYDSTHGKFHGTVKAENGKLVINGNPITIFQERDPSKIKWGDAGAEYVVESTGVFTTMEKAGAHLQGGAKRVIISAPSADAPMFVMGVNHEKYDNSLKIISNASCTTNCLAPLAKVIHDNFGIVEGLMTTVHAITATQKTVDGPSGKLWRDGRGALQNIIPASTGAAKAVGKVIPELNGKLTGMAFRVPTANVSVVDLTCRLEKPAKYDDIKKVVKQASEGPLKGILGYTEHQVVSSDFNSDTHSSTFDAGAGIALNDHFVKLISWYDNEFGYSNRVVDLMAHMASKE

[13] = target: T4, Phospholipase D2 (Homo sapiens, UniProt O14939); experiment: PLD2 purified enzyme concentration response. [Related pubchem assays (depositor defined):AID588854]; type: functional
T4 sequence (O14939 whole entry): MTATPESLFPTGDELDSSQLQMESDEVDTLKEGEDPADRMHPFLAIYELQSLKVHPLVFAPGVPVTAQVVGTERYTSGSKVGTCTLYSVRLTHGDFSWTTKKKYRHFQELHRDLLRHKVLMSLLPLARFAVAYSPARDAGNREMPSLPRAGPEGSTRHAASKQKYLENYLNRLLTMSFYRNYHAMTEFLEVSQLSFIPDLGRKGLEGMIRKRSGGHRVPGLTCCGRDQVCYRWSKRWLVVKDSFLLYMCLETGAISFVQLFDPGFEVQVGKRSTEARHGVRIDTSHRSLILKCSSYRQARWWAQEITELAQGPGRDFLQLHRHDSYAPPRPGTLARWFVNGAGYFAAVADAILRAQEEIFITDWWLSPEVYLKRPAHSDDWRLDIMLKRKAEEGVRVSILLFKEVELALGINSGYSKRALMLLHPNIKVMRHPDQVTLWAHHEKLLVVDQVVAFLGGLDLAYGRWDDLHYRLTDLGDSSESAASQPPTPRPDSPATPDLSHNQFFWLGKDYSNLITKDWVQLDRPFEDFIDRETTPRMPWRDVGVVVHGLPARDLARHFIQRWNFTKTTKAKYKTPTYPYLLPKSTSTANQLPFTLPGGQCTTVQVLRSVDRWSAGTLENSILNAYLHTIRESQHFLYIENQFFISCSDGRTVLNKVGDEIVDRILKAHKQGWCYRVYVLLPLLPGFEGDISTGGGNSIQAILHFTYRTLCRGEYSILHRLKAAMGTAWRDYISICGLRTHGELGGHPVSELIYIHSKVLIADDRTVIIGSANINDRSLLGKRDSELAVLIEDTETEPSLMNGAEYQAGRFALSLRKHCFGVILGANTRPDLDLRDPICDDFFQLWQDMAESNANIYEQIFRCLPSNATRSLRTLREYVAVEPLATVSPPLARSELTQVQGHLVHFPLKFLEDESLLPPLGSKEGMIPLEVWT

[14] = target: T4, Phospholipase D2; experiment: PLD2 inhibitor potency in cells, dose response (AID 602147); type: functional;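 further: cellular assay in HEK293 cells overexpressing GFP-tagged PLD2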
[15] = target: Phospholipase D1 (Homo sapiens, UniProt Q13393); experiment: PLD1 purified enzyme concentration response. [Related pubchem assays (depositor defined):AID588854]; type: functional
Phospholipase D1, sequence (Q13393 whole entry): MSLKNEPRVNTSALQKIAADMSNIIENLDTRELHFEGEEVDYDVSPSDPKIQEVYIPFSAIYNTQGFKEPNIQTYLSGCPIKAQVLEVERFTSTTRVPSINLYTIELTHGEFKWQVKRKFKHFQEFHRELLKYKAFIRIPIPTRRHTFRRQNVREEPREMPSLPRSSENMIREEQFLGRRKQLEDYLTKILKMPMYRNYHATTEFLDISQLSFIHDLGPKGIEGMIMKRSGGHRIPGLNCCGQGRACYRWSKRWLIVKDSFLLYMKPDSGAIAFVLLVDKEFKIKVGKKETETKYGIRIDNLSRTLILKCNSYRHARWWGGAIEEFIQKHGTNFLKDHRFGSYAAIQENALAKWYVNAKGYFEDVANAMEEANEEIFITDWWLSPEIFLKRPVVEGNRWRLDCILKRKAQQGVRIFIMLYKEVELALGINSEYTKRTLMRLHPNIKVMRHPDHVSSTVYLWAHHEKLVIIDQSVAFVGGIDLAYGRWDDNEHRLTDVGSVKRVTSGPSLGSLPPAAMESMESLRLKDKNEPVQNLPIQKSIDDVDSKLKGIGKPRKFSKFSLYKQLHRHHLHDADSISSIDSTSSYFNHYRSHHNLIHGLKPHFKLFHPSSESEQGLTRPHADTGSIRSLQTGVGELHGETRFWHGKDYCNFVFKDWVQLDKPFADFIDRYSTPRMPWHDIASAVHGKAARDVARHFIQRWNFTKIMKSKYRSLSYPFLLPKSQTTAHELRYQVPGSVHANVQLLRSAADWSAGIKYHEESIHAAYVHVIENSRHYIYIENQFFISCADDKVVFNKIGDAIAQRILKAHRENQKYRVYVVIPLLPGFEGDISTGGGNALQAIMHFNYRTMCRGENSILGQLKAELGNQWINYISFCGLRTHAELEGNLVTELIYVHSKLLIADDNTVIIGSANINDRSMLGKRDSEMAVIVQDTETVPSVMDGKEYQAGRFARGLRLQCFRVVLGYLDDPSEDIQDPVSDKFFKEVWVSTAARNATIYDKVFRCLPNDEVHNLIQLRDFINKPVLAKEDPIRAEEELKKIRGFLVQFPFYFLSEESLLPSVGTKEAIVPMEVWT

[16] = Vero cell cytotoxicity, dose response, cytotoxicity control for Vif-APOBEC3G degradation inhibitor project, Vero cells (AID 1117358); type: functional; conditions: Human immunodeficiency virus 1, Vero
[17] = target: Dual specificity protein kinase CLK1 (Homo sapiens, UniProt P49759); experiment: CLK1 kinase inhibitors, off-target check, dose response, selectivity assay for Dyrk1A inhibitor project, biochemical, cherry-picked samples (AID 588811)
Dual specificity protein kinase CLK1, sequence (P49759 whole entry): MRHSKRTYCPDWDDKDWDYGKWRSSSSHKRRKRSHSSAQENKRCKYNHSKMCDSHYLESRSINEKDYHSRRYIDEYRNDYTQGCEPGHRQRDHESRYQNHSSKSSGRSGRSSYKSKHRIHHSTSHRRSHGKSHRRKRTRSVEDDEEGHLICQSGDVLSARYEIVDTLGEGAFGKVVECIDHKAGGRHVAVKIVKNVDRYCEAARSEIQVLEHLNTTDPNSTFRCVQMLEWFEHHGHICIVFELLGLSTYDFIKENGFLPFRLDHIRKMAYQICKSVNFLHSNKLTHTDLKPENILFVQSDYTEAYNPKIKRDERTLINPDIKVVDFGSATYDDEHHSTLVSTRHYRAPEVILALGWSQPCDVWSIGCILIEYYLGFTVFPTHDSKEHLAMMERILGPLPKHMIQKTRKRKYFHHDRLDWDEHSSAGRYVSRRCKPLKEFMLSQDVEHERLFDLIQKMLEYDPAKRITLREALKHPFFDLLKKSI

[18] = target: Dual specificity tyrosine-phosphorylation-regulated kinase 1A (Rattus norvegicus, UniProt Q63470); type: biochemical, Homo sapiens
[19] = Luminescence Cell-Based Dose Retest to Confirm Inhibitors of Cancer Stem Cells. [Related pubchem assays (depositor defined):AID2717, AID2721]; type: functional; conditions: Homo sapiens
[20] = cytotoxicity in HMLE control line with eGFP shRNA, dose response, counter-screen for HMLE_sh_ECad selective toxicity project, cell-based, HMLE_sh_eGFP, luminescence (AID 463074); type: functional, Homo sapiens;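 further: HMLE human mammary epithelial cells expressing control shRNA against eGFP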
[21] = target: Matrix metalloproteinase-14 (Homo sapiens, UniProt P50281); experiment: Dose Response confirmation of uHTS hits for a small molecule inhibitors of MT1-MMP activation in a fluorescence assay set 2.; type: functional
[22] = target: FAD-linked sulfhydryl oxidase ALR (Homo sapiens, UniProt P55789); experiment: inhibitors of human ALR sulfhydryl oxidase, dose response, biochemical, H2O2 detection, luminescence, cherry-pick (AID 493248)
FAD-linked sulfhydryl oxidase ALR, sequence (P55789 whole entry, the tested form may be a part): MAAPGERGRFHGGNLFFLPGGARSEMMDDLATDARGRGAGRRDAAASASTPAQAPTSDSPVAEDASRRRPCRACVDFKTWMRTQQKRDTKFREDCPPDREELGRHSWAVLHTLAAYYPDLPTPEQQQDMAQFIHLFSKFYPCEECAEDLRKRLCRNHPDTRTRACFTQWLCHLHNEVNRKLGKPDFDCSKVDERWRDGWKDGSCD

[23] = target: T5, Hexokinase-1 (Homo sapiens, UniProt P19367); experiment: SAR analysis of small molecule inhibitors of hexokinase domain containing I (HKDC1) in the hexokinase 1 selectivity assay. [Related pubchem assays (depositor defined):AID493160, AID493190]; type: functional
T5 sequence (P19367 whole entry): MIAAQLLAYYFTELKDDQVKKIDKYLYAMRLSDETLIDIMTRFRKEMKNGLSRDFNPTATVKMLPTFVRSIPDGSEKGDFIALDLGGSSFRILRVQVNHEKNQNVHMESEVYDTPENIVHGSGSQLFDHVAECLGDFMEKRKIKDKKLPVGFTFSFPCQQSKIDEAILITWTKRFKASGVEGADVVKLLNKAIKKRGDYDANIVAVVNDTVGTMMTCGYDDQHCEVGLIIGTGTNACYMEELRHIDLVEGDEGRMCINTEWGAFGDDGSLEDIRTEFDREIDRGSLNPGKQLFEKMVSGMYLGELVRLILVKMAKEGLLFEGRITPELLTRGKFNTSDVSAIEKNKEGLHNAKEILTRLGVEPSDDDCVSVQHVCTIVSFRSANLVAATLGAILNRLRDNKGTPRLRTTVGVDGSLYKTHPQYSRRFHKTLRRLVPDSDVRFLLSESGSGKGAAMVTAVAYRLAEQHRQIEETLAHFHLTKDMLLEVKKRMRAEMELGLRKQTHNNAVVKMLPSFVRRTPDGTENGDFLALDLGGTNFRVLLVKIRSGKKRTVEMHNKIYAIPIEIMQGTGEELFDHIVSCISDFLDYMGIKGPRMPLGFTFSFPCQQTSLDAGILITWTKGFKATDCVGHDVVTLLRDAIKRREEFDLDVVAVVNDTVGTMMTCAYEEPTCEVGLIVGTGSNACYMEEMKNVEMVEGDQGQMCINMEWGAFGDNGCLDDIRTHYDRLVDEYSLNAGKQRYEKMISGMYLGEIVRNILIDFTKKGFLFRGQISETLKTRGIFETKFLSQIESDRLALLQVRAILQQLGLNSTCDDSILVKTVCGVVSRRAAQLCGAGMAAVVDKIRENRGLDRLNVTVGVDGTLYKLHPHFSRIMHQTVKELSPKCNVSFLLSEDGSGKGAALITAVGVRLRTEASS

[24] = target: T6, Hexokinase HKDC1 (Homo sapiens, UniProt Q2TB90); experiment: SAR analysis of small molecule inhibitors of hexokinase domain containing I (HKDC1). [Related pubchem assays (depositor defined):AID493160, AID493190]; type: functional
T6 sequence (Q2TB90 whole entry): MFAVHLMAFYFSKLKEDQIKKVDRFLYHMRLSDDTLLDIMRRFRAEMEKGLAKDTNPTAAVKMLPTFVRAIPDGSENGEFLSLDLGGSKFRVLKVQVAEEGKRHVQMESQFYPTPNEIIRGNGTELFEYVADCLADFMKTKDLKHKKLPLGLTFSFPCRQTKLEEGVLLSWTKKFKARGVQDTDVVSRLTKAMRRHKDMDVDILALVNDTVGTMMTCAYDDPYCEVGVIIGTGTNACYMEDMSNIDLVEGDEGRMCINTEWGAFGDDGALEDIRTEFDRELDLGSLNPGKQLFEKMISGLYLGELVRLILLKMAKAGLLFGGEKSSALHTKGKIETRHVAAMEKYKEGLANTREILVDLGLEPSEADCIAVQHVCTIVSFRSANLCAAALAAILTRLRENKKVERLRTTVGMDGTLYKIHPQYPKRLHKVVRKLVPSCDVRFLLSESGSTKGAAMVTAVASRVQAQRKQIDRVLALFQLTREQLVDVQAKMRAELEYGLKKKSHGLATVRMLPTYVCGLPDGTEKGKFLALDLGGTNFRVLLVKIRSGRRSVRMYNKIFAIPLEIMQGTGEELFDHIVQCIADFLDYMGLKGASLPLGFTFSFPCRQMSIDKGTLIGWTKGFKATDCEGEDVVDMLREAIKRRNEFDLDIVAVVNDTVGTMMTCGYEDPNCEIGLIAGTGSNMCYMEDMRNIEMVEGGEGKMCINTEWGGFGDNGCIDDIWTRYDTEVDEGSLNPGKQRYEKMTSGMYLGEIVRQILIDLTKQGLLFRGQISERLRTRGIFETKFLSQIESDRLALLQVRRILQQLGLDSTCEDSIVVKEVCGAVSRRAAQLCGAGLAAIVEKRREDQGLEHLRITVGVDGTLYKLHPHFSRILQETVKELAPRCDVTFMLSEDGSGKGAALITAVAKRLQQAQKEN

[25] = tested on: A-375; experiment: MITF: Counter assay: A375 proliferation Measured in Cell-Based System Using Plate Reader - 2084-03_Inhibitor_Dose_DryPowder_Activity. [Related pubchem assays (depositor defined):AID488944]; type: functional; conditions: Homo sapiens
[26] = tested on: A-375; experiment: A375 melanoma cell viability reduction, dose response, counter-screen for MITF modulator project, cherry-pick samples, set 2 (AID 540335); type: functional, cell-based; conditions: Homo sapiens

CCOc1ccc(-c2nc(CSCC(=O)NCc3ccccc3)c(C)o2)cc1
IC50 [1]: > 80 µM (inactive)
IC50 [2]: 49.3 µM (inactive)
IC50 [3]: 21.6 µM (inactive)

O=C(CSc1nnc(NC2CCCCC2)s1)Nc1ccc2c(c1)C(=O)c1ccccc1C2=O
IC50 [4]: > 67.5 µM (inactive)
IC50 [5]: > 67.5 µM (inactive)

O=C(CCCCCn1c(=O)[nH]c2ccsc2c1=O)NCc1ccc2c(c1)OCO2
EC50 [6]: 0.0393 µM (active)

Cc1cc(I)cc2c1NC(C(=O)O)C1CC=CC21 (stereo unspecified)
IC50 [7]: > 100 µM (inactive)
IC50 [8]: > 100 µM (inactive)
IC50 [9]: > 100 µM (not active)
IC50 [10]: > 100 µM (not active)
IC50 [11]: > 100 µM (not active)
IC50 [12]: > 100 µM (not active)

O=C(NCCN1CCC2(CC1)C(=O)NCN2c1ccc(F)cc1)c1cc2cc(F)ccc2[nH]1
IC50 [13]: 0.066 µM (active)
IC50 [14]: 0.027 µM (active)
IC50 [15]: 5.5 µM (active)

O=C(Nc1nc2ccc(Cl)cc2s1)C1CCCO1 (stereo unspecified)
CC50 [16]: > 40 µM (active)
AC50 [17]: 2.03 µM (active)
AC50 [18]: 2.01 µM (active)

O=C(NNc1c2ccccc2nc2ccccc12)c1ccccc1O
AC50 [19]: 18.3 µM (active)
AC50 [20]: 22.8 µM (active)
IC50 [21]: 60.8 µM (inactive)
AC50 [22]: 0.08 µM (active)

O=c1c2ccccc2nc(/C=C/c2ccccc2)n1-c1ccccc1
IC50 [23]: > 80 µM (inactive)
IC50 [24]: > 80 µM (inactive)

CC(=O)c1ccc(N/C=C/C(=O)c2ccc(Br)cc2)cc1
AC50 [25]: > 35 µM (active)
AC50 [26]: > 35 µM (active)
